Reference: ChEMBL document CHEMBL2073983, “Characterization of the mouse bile salt export pump overexpressed in the baculovirus system” (Hepatology, 2001)

How the values were obtained:
Assay type in all cases: functional, cell membranes, Membrane vesicle
[1] = molecular target: T1, Bile salt export pump (Bsep) (Mus musculus, UniProt Q9QY30); assay: TP_TRANSPORTER: inhibition of Taurochenodeoxycholate-stimulated ATPase activity (Glibenclamide: 60 uM) in membrane vesicles from Bsep-expressing Sf9 cells; design: scale not given: the % may be the effect or the level left; conditions: probe Taurochenodeoxycholate, read-out: Activity
T1 sequence (Q9QY30 whole entry): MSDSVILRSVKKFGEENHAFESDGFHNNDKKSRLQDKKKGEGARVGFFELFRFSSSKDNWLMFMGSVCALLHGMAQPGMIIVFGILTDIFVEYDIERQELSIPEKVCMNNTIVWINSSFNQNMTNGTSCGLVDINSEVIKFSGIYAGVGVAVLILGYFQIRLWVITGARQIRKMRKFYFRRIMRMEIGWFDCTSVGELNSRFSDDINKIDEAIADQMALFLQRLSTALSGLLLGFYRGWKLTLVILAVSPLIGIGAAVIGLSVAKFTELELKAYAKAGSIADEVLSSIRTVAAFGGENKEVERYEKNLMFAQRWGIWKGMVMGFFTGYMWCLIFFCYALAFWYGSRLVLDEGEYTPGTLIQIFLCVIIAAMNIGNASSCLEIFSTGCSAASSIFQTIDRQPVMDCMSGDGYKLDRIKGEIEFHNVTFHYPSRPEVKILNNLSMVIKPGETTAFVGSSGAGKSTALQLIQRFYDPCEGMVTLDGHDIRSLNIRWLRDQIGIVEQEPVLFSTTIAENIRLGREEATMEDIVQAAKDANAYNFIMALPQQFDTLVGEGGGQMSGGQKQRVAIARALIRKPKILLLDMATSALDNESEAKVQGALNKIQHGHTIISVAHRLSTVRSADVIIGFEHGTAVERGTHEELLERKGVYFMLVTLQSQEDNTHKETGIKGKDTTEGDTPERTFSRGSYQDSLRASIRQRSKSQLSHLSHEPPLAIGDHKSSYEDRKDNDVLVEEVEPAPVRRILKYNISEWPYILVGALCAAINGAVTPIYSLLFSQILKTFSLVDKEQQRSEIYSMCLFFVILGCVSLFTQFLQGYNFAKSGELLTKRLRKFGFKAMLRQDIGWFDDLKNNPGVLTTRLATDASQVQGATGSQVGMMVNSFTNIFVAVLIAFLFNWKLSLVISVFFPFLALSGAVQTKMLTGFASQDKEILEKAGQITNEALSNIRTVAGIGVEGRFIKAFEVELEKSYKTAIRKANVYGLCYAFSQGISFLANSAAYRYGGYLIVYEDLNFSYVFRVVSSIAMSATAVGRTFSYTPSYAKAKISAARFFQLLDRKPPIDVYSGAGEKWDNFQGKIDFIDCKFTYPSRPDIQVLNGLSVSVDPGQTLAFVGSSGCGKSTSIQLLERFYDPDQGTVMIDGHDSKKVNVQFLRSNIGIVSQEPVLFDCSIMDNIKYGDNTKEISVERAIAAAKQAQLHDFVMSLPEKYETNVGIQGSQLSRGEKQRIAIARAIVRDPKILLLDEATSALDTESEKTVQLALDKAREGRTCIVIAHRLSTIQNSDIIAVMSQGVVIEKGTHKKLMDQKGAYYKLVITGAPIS

[2] = molecular target: T1, Bile salt export pump (Bsep); assay: TP_TRANSPORTER: inhibition of Taurochenodeoxycholate-stimulated ATPase activity (Rifamycin SV: 100 uM) in membrane vesicles from Bsep-expressing Sf9 cells; design: scale not given: the % may be the effect or the level left; conditions: probe Taurochenodeoxycholate, read-out: Activity
[3] = substrate: C[C@H](CCC(=O)NCCS(=O)(=O)O)[C@H]1CC[C@H]2[C@@H]3[C@H](O)C[C@@H]4C[C@H](O)CC[C@]4(C)[C@H]3CC[C@]12C; assay: TP_TRANSPORTER: uptake in membrane vesicles isolated from Bsep-expressing Sf9 cells
[4] = substrate: C[C@H](CCC(=O)NCC(=O)O)[C@H]1CC[C@H]2[C@@H]3[C@H](O)C[C@@H]4C[C@H](O)CC[C@]4(C)[C@H]3C[C@H](O)[C@]12C; assay: TP_TRANSPORTER: uptake in membrane vesicles from Bsep-expressing Sf9 cells

Molecule: COc1ccc(Cl)cc1C(=O)NCCc1ccc(S(=O)(=O)NC(=O)NC2CCCCC2)cc1 [GLYBURIDE]
- activity at 60 µM [1]: 47.2%

Molecule: CO[C@H]1/C=C/O[C@@]2(C)Oc3c(C)c(O)c4c(O)c(cc(O)c4c3C2=O)NC(=O)/C(C)=C\C=C\[C@H](C)[C@H](O)[C@@H](C)[C@@H](O)[C@@H](C)[C@H](OC(C)=O)[C@@H]1C [RIFAMYCIN]
- activity at 100 µM [2]: 29.8%

B1: Bile salt export pump (Mus musculus) (protein)
chain: T1 sequence (Q9QY30 whole entry)
- Km [3]: 5.7 µM
- Km [4]: 19.5 µM
